{"source": "paper PMC6755732", "about": "“Structural, Biochemical, and In Vivo Characterization of MtrR-Mediated Resistance to Innate Antimicrobials by the Human Pathogen Neisseria gonorrhoeae” (Journal of Bacteriology, 2019)", "key": {"MtrR": {"target": "T1, MtrR (Neisseria gonorrhoeae, UniProt P39897)", "T1 construct": "A codon optimized gene of MtrR was synthesized by GenScript and cloned into the; hexahistidine tag with TEV protease site (N, cleaved yes); made in house", "T1 sequence (P39897 whole entry)": "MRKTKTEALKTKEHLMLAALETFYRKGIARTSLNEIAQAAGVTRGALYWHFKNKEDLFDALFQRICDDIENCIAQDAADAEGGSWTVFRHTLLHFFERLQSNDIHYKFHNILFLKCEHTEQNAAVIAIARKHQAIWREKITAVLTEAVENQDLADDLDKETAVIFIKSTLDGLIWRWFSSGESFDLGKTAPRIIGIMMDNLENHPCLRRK", "experiment": "Isothermal titration calorimetry, wild-type MtrR with bile salts", "format": "binding", "conditions": "ITC, 25°C, 20 μM MtrR in cell, 250 μM ligand in syringe", "description": "Purified MtrR was dialyzed extensively against buffer containing 20 mM Tris [pH 8.0], 200 mM NaCl, 10% glycerol, and 1 mM TCEP overnight at 4°C. The stock solutions and the necessary dilutions of the bile salts were prepared using this dialysis buffer. Titrations with 20 μM MtrR in the cell and 250 μM ligand in the syringe were performed using a VP-ITC microcalorimeter (Microcal Inc.). All measurements were conducted at 25°C with a stirring speed of 200 rpm. After subtraction of germane blank data, the titration data were analyzed using the program ORIGIN 5.0.\nProtein purification for Isothermal Titration Calorimetry experiments and mutant […]\nA codon optimized gene of MtrR was synthesized by GenScript and cloned into the pMCSG7 vector in- frame with the N-terminal Hexa- histidine tag and tobacco etch virus (TEV) protease cleavage site. This construct was used as the template for site- directed mutagenesis and to generate wild- type data in supplemental f igures 5-6 and Isothermal Titration Calorimetry data. This protein was overexpressed and purified as described in the “Materials and Methods” of the document, except the he xa -histidine tag MtrR was cleaved by TEV protease following NiNTA affinity chromatography. Cleaved MtrR was purified from tagged MtrR and cleaved hexa- histidine tag by Ni- NTA aff inity chromatography and then further purified by size exclusion chromatography (S200)."}, "MtrR-mtrCDE promoter": {"target": "T2, MtrR-mtrCDE promoter (Neisseria gonorrhoeae, UniProt P39897)", "T2 construct": "nearly all 210 residues of each protomer observed, with the exception of residues 1 through 7; hexahistidine tag (thrombin-cleavable) (cleaved yes); made in house", "T2 sequence (P39897 whole entry)": "as above", "format": "biochemical", "conditions": "versus no bile salt", "description": "Thus, to rule out any effect of alkaline pH on MtrR-DNA interactions, we buffered the CAPS used in the FP assay to pH 8.0 before testing its effect on DNA binding.\nFluorescence polarization-based DNA binding experiments were performed with a Panvera Beacon 2000 fluorescence polarization system (Invitrogen) utilizing 5′-fluorescein-labeled DNA. Polarization (P) of such 5′-labeled DNA increases as a function of protein binding, and equilibrium dissociation constants are determined by curve fitting the values of millipolarization (P × 10^−3) units against the protein concentration. To determine the effects of various ligands on MtrR-DNA binding, 1 nM 5′-fluoresceinated oligodeoxynucleotide duplexes containing the mtrC operator site in 1 ml binding buffer (20 mM Tris HCl [pH 8.0], 100 mM NaCl, and 2.5% glycerol) were titrated against increasing concentrations of purified MtrR in the presence or absence of the indicated concentrations of bile salt, and the resulting changes in polarization were measured. All the samples were excited at 490 nm, and their polarized emissions were measured at 530 nm. All the data were plotted using Kaleidagraph (Synergy Software) and Prism (GraphPad Software), and the resulting plots were fitted to the following equation: P = {(Pbound − Pfree)[protein]/(KD + [protein])} + Pfree, where P is the polarization measured at a given protein concentration, Pfree is the initial polarization of the free ligand, Pbound is the maximum polarization of specifically bound ligand, KD is the equilibrium dissociation constant, and [protein] is the protein concentration. Nonlinear least-squares analysis was used to determine Pbound, and Kd. The reported binding constants are the average values from at least three independent experimental measurements."}, "MtrR-DNA complex": {"target": "T3, MtrR-DNA complex (Neisseria gonorrhoeae, UniProt P39897)", "T3 construct": "nearly all 210 residues of each protomer observed, with the exception of residues 1 through 7; hexahistidine tag (thrombin-cleavable) (cleaved yes); made in house", "T3 sequence (P39897 whole entry, one chain of several)": "as the sequence (P39897 whole entry) above", "format": "biochemical", "conditions": "EMSA, wild-type MtrR, mtrC promoter oligoduplex", "method": "To test the hypothesis that these bile salts directly bind to MtrR and potentially derepress gene expression by interfering with the DNA binding activity of MtrR, MtrR-mtrC promoter interactions were tested in the presence and absence of different concentrations of several bile salts. […] It is important to note that this is a competition assay that, due to its experimental design, requires the use of 3 μM DNA and 4 to 10 μM MtrR dimer. Consequently, this means that ∼99.9% of all DNA is MtrR bound.\nComplementary oligodeoxynucleotides containing the MtrR binding site from the mtrC promoter (top strand, 5′-[sequence]-3′; an unusual pseudo-direct repeat is underlined) were annealed by heating an equimolar mixture of the top and bottom strands at 95°C for 5 min, followed by slow cooling to room temperature. Binding reactions were carried out in 20-μl volumes of binding buffer (20 mM Tris [pH 8.0], 200 mM NaCl, 10% glycerol, and 1 mM TCEP) containing 1 μg oligoduplex, 1 μg poly(dI-dC), and 4 to 10 μg MtrR. After a 20-minute incubation at room temperature, the preformed complex was incubated with or without various concentrations of selected bile salts at room temperature for an additional 10 min. […] The gels were stained with ethidium bromide and visualized and analyzed with an Alpha Innotech gel documentation instrument. The intensities of free DNA were measured with ImageJII ([61], [62])."}, "[1]": {"tested_on": "mtrCp-lacZ in FA19 (wild type)", "experiment": "β-Galactosidase assay of mtrCp-lacZ fusion, strain FA19", "format": "cell-based, Neisseria gonorrhoeae", "excerpt": "(§1) To determine if sublethal concentrations of bile salts could relieve MtrR-mediated repression of mtrC (and, by inference, the mtrCDE operon), a translational fusion of the promoter region of mtrC to lacZ was used. This fusion system was made in the wild-type (FA19) background ([41]) and cloned into mtrR deletion mutant strain JF1. Using the mtrCp-lacZ fusion, the β-galactosidase activity of the strains grown in the presence or absence of the bile salt chenodeoxycholate, taurodeoxycholate, or glycocholate was measured. The β-galactosidase levels were determined from strains grown overnight on GC agar supplemented with the bile salt at concentrations 4-fold below their specific MICs to ensure that the concentration of each bile salt was in the same biological range (the bile salt concentrations are listed in Table 2).\nN. gonorrhoeae strains FA19 (wild type) and JF1 (FA19 ΔmtrR) containing a translational mtrCp-lacZ fusion with the proAB locus were used to assess the ability of bile salts to induce mtrC expression; the construction of these strains has been described previously ([41]). The MIC of bile salts for each strain used in the β-galactosidase assay was determined using a 2-fold agar dilution method ([32]). Gonococci were grown overnight on GC agar (Difco Laboratories) supplemented with a bile salt (glycocholate, chenodeoxycholate, or taurodeoxycholate) at concentrations that were 4-fold below the MIC. After overnight growth at 37°C under 3.8% (vol/vol) CO2, the bacteria were scraped from the agar plate, resuspended in 1 ml phosphate-buffered saline (pH 7.4), and lysed by freeze-thawing three times, after which the cell debris was pelleted by centrifugation. The lysate was then used to determine β-galactosidase levels as described previously ([63]). All experiments were performed in triplicate with at least three biological replicates conducted on different days."}, "[2]": {"tested_on": "mtrCp-lacZ in JF1 (FA19 ΔmtrR)", "format": "cell-based, Neisseria gonorrhoeae", "excerpt": "as §1\nN. gonorrhoeae strains FA19 (wild type) and JF1 (FA19 ΔmtrR) containing a translational mtrCp-lacZ fusion with the proAB locus were used to assess the ability of bile salts to induce mtrC expression; the construction of these strains has been described previously ([41]). The MIC of bile salts for each strain used in the β-galactosidase assay was determined using a 2-fold agar dilution method ([32]). […]"}}, "note": "Where two headings read alike, the source gives them in different places.", "data": [{"smiles": "C[C@H](CCC(=O)NCC(=O)O)[C@H]1CC[C@H]2[C@@H]3[C@H](O)C[C@@H]4C[C@H](O)CC[C@]4(C)[C@H]3C[C@H](O)[C@]12C", "note": "[Glycocholate, glycocholate]", "values": [{"measurement": "Kd of bile salt binding to WT MtrR", "setting": "MtrR", "value": "no measurable binding"}, {"measurement": "Fold increase in Kd", "setting": "MtrR-mtrCDE promoter; 1 mM bile salt", "value": 1.2}, {"measurement": "Fold increase in Kd", "setting": "MtrR-mtrCDE promoter; 1 mM bile salt, listed as glycocholate", "value": "no effect"}, {"measurement": "Fold increase in Kd", "setting": "MtrR-mtrCDE promoter; 5 mM bile salt", "value": 5}, {"measurement": "Fold increase in Kd", "setting": "MtrR-mtrCDE promoter; 10 mM bile salt", "value": 6}, {"measurement": "Concentration that disrupts the preformed MtrR-DNA complex", "setting": "MtrR-DNA complex", "value": "> 40", "unit": "mM"}, {"measurement": "MtrR-dependent derepression of the mtrC promoter", "setting": "[1]; FA19 compared with ΔmtrR strain JF1, sublethal bile salt", "value": "failed to exhibit MtrR-dependent derepression"}, {"measurement": "Fold increase of mtrCp-lacZ activity", "setting": "[1]; strain FA19, grown on GC agar with bile salt 4-fold below MIC versus normal agar, mM concentration in parentheses in the cell", "value": "1.43 (0.48)"}, {"measurement": "Fold increase of mtrCp-lacZ activity", "setting": "[2]", "value": "2.11 (0.96)"}]}]}
